# Results from patent US20150258101A1 (Proximagen Limited, priority 2014, published 2015).
# Target: T1, purified recombinantly expressed human SSAO (Homo sapiens, UniProt Q16853)
# T1 construct: made in house
# T1 sequence (Q16853 1-763): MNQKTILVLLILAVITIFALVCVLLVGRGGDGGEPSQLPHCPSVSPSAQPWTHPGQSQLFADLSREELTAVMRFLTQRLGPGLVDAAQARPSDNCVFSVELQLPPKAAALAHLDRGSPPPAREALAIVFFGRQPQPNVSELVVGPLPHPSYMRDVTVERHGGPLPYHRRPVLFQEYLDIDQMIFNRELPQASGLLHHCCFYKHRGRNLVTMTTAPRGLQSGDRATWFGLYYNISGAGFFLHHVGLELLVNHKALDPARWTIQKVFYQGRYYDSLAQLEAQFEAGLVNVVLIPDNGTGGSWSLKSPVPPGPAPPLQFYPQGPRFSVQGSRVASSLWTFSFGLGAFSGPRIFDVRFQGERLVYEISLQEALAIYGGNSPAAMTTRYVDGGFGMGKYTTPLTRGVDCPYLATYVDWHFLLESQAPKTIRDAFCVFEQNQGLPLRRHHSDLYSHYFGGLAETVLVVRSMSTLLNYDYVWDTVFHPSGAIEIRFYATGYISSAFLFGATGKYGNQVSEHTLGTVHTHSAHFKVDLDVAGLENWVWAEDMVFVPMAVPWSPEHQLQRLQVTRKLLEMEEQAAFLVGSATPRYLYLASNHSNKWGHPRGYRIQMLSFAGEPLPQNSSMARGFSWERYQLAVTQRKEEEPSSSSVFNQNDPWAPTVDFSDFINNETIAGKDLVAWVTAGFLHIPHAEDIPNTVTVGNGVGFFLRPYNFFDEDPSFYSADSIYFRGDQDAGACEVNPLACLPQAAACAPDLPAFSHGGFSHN
# Assay: SSAO enzyme inhibition assay (benzylamine substrate; hydrogen peroxide/HRP-coupled or 14C aldehyde detection)
# Assay type: biochemical
# Conditions: SSAO inhibitory activity, RT
# Method: All primary assays were performed at RT. with purified recombinantly expressed human SSAO. Enzyme was prepared essentially as described in Öhman et al. (Protein Expression and Purification 46 (2006) 321-331). In addition, secondary- and selectivity assays were performed using SSAO prepared from various tissues or purified rat recombinant SSAO. The enzyme activity was assayed with benzylamine as substrate by measuring either benzaldehyde production, using ^14C-labeled substrate, or by utilizing the production of hydrogen peroxide in a horseradish peroxidase (HRP) coupled reaction. Briefly, test compounds were dissolved in dimethyl sulfoxide (DMSO) to a concentration of 10 mM. Dose-response measurements were assayed by either creating 1:10 serial dilutions in DMSO to produce a 7 point curve or by making 1:3 serial dilutions in DMSO to produce 11 point curves.
# In a horseradish peroxidase (HRP) coupled reaction, hydrogen peroxide oxidation of 10-acetyl-3,7-dihydroxyphenoxazine produced resorufin, which is a highly fluorescent compound (Zhout and Panchuk-Voloshina. Analytical Biochemistry 253 (1997) 169-174; Amplex® Red Hydrogen Peroxide/peroxidase Assay kit, Invitrogen A22188). Enzyme and compounds in 50 mM sodium phosphate, pH 7.4 were set to pre-incubate in flat-bottomed microtiter plates for approximately 15 min before initiating the reaction by addition of a mixture of HRP, benzylamine and Amplex reagent. Benzylamine concentration was fixed at a concentration corresponding to the Michaelis constant, determined using standard procedures. Fluorescence intensity was then measured at several time points during 1-2 h, exciting at 544 nm and reading the emission at 590 nm. For the human SSAO assay final concentrations of the reagents in the assay wells were: SSAO enzyme 1 ug/ml, benzylamine 100 uM, Amplex reagent 20 uM, HRP 0.1 U/mL and varying concentrations of test compound. The inhibition was measured as % decrease of the signal compared to a control without inhibitor (only diluted DMSO). The background signal from a sample containing no SSAO enzyme was subtracted from all data points. Data was fitted to a four parameter logistic model and IC50 values were calculated using the Graph Pad Prism 4 or XLfit 4 programs.
# SSAO activity was assayed using 14C-labeled benzylamine and analysed by measuring radioactive benzaldehyde. In a white 96-well optiplate (Packard), 20 uL of diluted test compound was pre-incubated at room temperature with 20 uL SSAO enzyme for approximately 15 min with continuous agitation. All dilutions were made with PBS. The reaction was initiated by adding 20 uL of the benzylamine substrate solution containing [7-14C] Benzylamine hydrochloride (CFA589, GE Healthcare). The plate was incubated for 1 h as above after which the reaction was stopped by acidification (10 uL 1M aq HCl). Then 90 uL Micro Scint-E solution (Perkin-Elmer) was added to each well and the plate was continuously mixed for 15 min. Phase separation occurred instantly and activity was read in a Topcount scintillation counter (Perkin-Elmer). In the final reaction well, the human recombinant SSAO concentration was 10 ug/ml. In order to optimize sensitivity, the substrate concentration was decreased as compared to the HRP coupled assay in order to get a higher fraction of radioactive product. In the human SSAO assay, benzylamine concentration was 40 uM (0.2 uCi/mL). Data was analysed as above.
row,IC50,Compound
1,50 to 200 nM,"CN1CCN(c2ncc(-c3nc4ccncc4n3-c3ccc(F)cc3)cn2)CC1=O [Example 40, 4-{5-[3-(4-Fluorophenyl)-3H-imidazo[4,5-c]pyridin-2-yl]pyrimidin-2-yl}-1-methylpiperazin-2-one]"
2,< 50 nM,"Fc1ccc(-n2c(-c3ccc(N4CCOCC4)nc3)nc3ccncc32)c(F)c1 [Example 41, 4-{5-[3-(2,4-Difluorophenyl)-3H-imidazo[4,5-c]pyridin-2-yl]pyridin-2-yl}morpholine]"
3,50 to 200 nM,"CCOCCNc1ncc(-c2nc3ccncc3n2-c2ccc(F)cc2)cn1 [Example 42, N-(2-Ethoxyethyl)-5-[3-(4-fluorophenyl)-3H-imidazo [4,5-c]pyridin-2-yl]pyrimidin-2-amine]"
4,< 50 nM,"CCOCCNc1ncc(-c2nc3ccncc3n2-c2ccc(C)cc2)cn1 [Example 43, N-(2-Ethoxyethyl)-5-[3-(4-methylphenyl)-3H-imidazo [4,5-c]pyridin-2-yl] pyrimidin-2-amine]"
5,200 to 1200 nM,"Clc1ccc(-n2c(-c3cnc[nH]3)nc3ccncc32)cc1 [Example 44, 5-[3-(4-Chlorophenyl)-3H-imidazo[4,5-c]pyridin-2-yl]-1H-imidazole]"
6,200 to 1200 nM,"CN1CCN(Cc2cccc(-c3nc4ccncc4n3-c3ccc(Cl)cc3)c2)CC1 [Example 45, 1-({3-[3-(4-Chlorophenyl)-3H-imidazo[4,5-c]pyridin-2-yl]phenyl}methyl)-4-methylpiperazine; formic acid]"
7,< 50 nM,"Clc1ccc(-n2c(-c3ccc(Cn4ccnc4)cc3)nc3ccncc32)cc1 [Example 48, 1-({4-[3-(4-Chlorophenyl)-3H-imidazo[4,5-c]pyridin-2-yl]phenyl}methyl)-1H-imidazole]"
8,< 50 nM,"Clc1ccc(-n2c(-c3ccc(CN4CCOCC4)cc3)nc3ccncc32)cc1 [Example 49, 4-({4-[3-(4-Chlorophenyl)-3H-imidazo[4,5-c]pyridin-2-yl]phenyl}methyl)morpholine]"
9,< 50 nM,"Cc1cc(F)ccc1-n1c(-c2cnc(N3CCOCC3)nc2)nc2ccncc21 [Example 55, 4-{5-[3-(4-Fluoro-2-methylphenyl)-3H-imidazo[4,5-c]pyridin-2-yl]pyrimidin-2-yl}morpholine]"
10,200 to 1200 nM,"Fc1ccc(-n2c(-c3cnc(N4CCOCC4)nc3)nc3ccncc32)c(Cl)c1 [Example 56, 4-{5-[3-(2-Chloro-4-fluorophenyl)-3H-imidazo[4,5-c]pyridin-2-yl]pyrimidin-2-yl}morpholine]"
11,200 to 1200 nM,"Cc1ccc(-n2c(-c3cnc(N4CCOCC4)nc3)nc3ccncc32)cn1 [Example 58, 4-{5-[3-(6-Methylpyridin-3-yl)-3H-imidazo[4,5-c]pyridin-2-yl]pyrimidin-2-yl}morpholine]"
12,50 to 200 nM,"Brc1ccc(-n2c(-c3cnc(N4CCOCC4)nc3)nc3ccncc32)cc1 [Example 59, 4-{5-[3-(4-Bromophenyl)-3H-imidazo[4,5-c]pyridin-2-yl]pyrimidin-2-yl}morpholine]"
13,50 to 200 nM,"Fc1ccccc1-n1c(-c2cnc(N3CCOCC3)nc2)nc2ccncc21 [Example 60, 4-{5-[3-(2-Fluorophenyl)-3H-imidazo[4,5-c]pyridin-2-yl]pyrimidin-2-yl}morpholine]"
14,< 50 nM,"Fc1ccc(-n2c(-c3ccc(N4CCOCC4)nc3)nc3ccncc32)c(Cl)c1 [Example 61, 4-{5-[3-(2-Chloro-4-fluorophenyl)-3H-imidazo[4,5-c]pyridin-2-yl]pyridin-2-yl}morpholine]"
15,50 to 200 nM,"Cc1cc(F)ccc1-n1c(-c2ccc(N3CCOCC3)nc2)nc2ccncc21 [Example 62, 4-{5-[3-(4-Fluoro-2-methylphenyl)-3H-imidazo[4,5-c]pyridin-2-yl]pyridin-2-yl}morpholine]"
16,< 50 nM,"Oc1ccc(-n2c(-c3ccc(N4CCOCC4)nc3)nc3ccncc32)cc1 [Example 65, 4-{2-[6-(Morpholin-4-yl)pyridin-3-yl]-3H-imidazo[4,5-c]pyridin-3-yl}phenol]"
